Measurements published in publication PMC9680032, “Conformationally Locked Carbocyclic Nucleosides Built on a 4′-Hydroxymethyl-3′-hydroxybicyclo[4.1.0]heptane Template. Stereoselective Synthesis and Antiviral Activity” (The Journal of Organic Chemistry, 2022).
≈ marks a conversion by molar mass, not a printed value.

B1: UDA: reference agent against Human Coronavirus (229E) in Table S1 (protein, UniProt P11218 24-372, looked up)
Lectin/endochitinase 1: QRCGSQGGGGTCPALWCCSIWGWCGDSEPYCGRTCENKCWSGERSDHRCGAAVGNPPCGQDRCCSVHGWCGGGNDYCSGSKCQYRCSSSVRGPRVALSGNSTANSIGNVVVTEPLFDQMFSHRKDCPSQGFYSYHSFLVAAESFPAFGTIGDVATRKREVAAFLAHISQATSGERSDVENPHAWGLCHINTTTVTENDFCTSSDWPCAAGKKYSPRGPIQLTHNFNYGLAGQAIGEDLIQNPDLVEKDPIISFKTALWFWMSQHDNKPSCHDIVLNANSAANRIPNKGVIGNIISRAFGHDDFAVRSSSIGFYKRYCDMLGVSYGHDLKYWFDNTPSSEFQRIQMRVAA

Experiments:
[1] = test system: Influenza B virus B/Ned/537/05; test: Antiviral CPE assay, Influenza B in MDCK cells; type: cell-based; settings: Influenza B virus; MDCK cell cultures
[2] = test system: Coxsackie virus B4; test: Antiviral CPE assay, Coxsackie virus B4 in Vero cells; type: cell-based; settings: Enterovirus B, B4, Vero
[3] = test system: Punta Toro virus; test: Antiviral CPE assay, Punta Toro virus in Vero cells; type: cell-based; settings: Punta Toro virus, Vero
[4] = in vitro; settings: dog
[5] = test system: Human immunodeficiency virus (ROD); test: Antiviral CPE assay, HIV-2 (ROD) in MT-4 cells; type: cell-based; settings: Human immunodeficiency virus 2, MT4
[6] = test system: Human Coronavirus (229E); test: microbe, parasite or virus in culture; type: cell-based; settings: for EC50: Human coronavirus 229E, HEL, read-out: Antiviral EC50 Human Coronavirus (229E)
[7] = test system: Reo-virus-1; test: Antiviral CPE assay, Reovirus-1 in Vero cells; type: cell-based; settings: Vero
[8] = test system: Vesicular stomatitis virus; test: microbe, parasite or virus in culture; type: cell-based; settings: Vesicular stomatitis virus, HEp-2, read-out: Antiviral EC50 Vesicular stomatitis virus
[9] = Cytotoxicity in Vero cell cultures (MTS); type: cell-based, African green monkey; settings: African green monkey, Vero cells (kidney epithelial cells), uninfected, MTS assay, read-out: Cytotoxixity CC50
[10] = test system: Coxsackie virus B4; test: Antiviral CPE assay, Coxsackie virus B4 in HEp-2 cells; type: cell-based; settings: Enterovirus B, B4, HEp-2
[11] = test system: Human immunodeficiency virus (IIIB); test: Antiviral CPE assay, HIV-1 (IIIB) in MT-4 cells; type: cell-based, human immunodeficiency virus type 1 (HIV-1); settings: Human immunodeficiency virus 1, IIIB, MT4
[12] = test system: Sindbis virus; test: Antiviral CPE assay, Sindbis virus in Vero cells; type: cell-based; settings: Sindbis virus, Vero
[13] = Cytotoxicity in MT-4 cell cultures (MTS); settings: human, Cytotoxixity CC50, MT-4 cell cultures, MTS assay
[14] = test system: Adeno virus-2; test: organism not typed; type: cell-based; settings: HEL, read-out: Antiviral EC50 Adeno virus-2
[15] = Cytotoxicity in HEp-2 cell cultures (MTS); settings: human
[16] = test system: Influenza A virus A/HK/7/87 (H3N2); test: Antiviral CPE assay, Influenza A (H3N2) in MDCK cells; type: cell-based; settings: Influenza A virus, H3N2, MDCK
[17] = test system: Vaccinia virus; test: microbe, parasite or virus in culture; type: cell-based; settings: Orthopoxvirus vaccinia, HEL, read-out: Antiviral EC50 Vaccinia virus
[18] = test system: Herpes simplex virus-1 (KOS); test: microbe, parasite or virus in culture; type: cell-based; settings: Human alphaherpesvirus 1, HEL, read-out: Antiviral EC50 Herpes simplex virus-1 (KOS)
[19] = test system: Herpes simplex virus-2 (G); test: microbe, parasite or virus in culture; type: cell-based; settings: Human alphaherpesvirus 2, HEL, read-out: Antiviral EC50 Herpes simplex virus-2 (G)
[20] = test system: Zika virus; test: Antiviral CPE assay, Zika virus in Vero cells; type: cell-based; settings: Zika virus, Vero
[21] = test system: Respiratory syncytial virus; test: Antiviral CPE assay, Respiratory syncytial virus in HEp-2 cells; type: cell-based; settings: human respiratory syncytial virus, HEp-2
[22] = test system: Influenza A virus A/Ned/378/05A (H1N1); test: Antiviral CPE assay, Influenza A (H1N1) in MDCK cells; type: cell-based; settings: Influenza A virus, H1N1, MDCK
[23] = test system: Yellow Fever virus; test: microbe, parasite or virus in culture; type: cell-based; settings: Yellow fever virus, Vero, read-out: Antiviral EC50 Yellow Fever virus, Vero cell cultures
[24] = in vitro; settings: human

Row | Molecule | EC50 [1] | EC50 [2] | EC50 [3] | CC50 [4] | EC50 [5] [µg/mL] | EC50 [7] | EC50 [8] | CC50 [9] | EC50 [10] | EC50 [11] [µg/mL] | EC50 [12] | CC50 [13] [µg/mL] | EC50 [14] | CC50 [15] | EC50 [16] | EC50 [17] | EC50 [18] | EC50 [19] | EC50 [20] | EC50 [22] | also measured
1 | OCc1cn(C2CC(O)C(CO)C3CC32)nn1 [Compound 3e, (1R,2R,3R,5S,6S)-2-(Hydroxymethyl)-5-[4″-(hydroxymethyl)-1H-1″,2″,3″-triazol-1‴-yl]bicyclo[4.1.0]heptan-3-ol] | > 50 µg/mL | > 50 µg/mL | > 50 µg/mL | > 50 µg/mL | > 116 | > 50 µg/mL | > 50 µg/mL | > 50 µg/mL | > 50 µg/mL | > 116 | > 50 µg/mL | ≥ 116 | > 50 µg/mL | > 50 µg/mL | > 50 µg/mL | > 50 µg/mL | > 50 µg/mL | > 50 µg/mL | > 50 µg/mL | > 50 µg/mL | EC50 [6]: > 50 µg/mL; EC50 [21]: > 50 µg/mL; EC50 [23]: > 50 µg/mL
2 | Nc1nc2c(ncn2C2CC(O)C(CO)C3CC32)c(=O)[nH]1 (stereo not drawn) [Compound 1b, 2-Amino-9-[(1′S,2′S,4′R,5′S,6′S)-4′-hydroxy-5′-(hydroxymethyl) Bicyclo[4.1.0]hept-2′-yl]-1,9-dihydro-6H-purin-6-one] | > 50 µg/mL | > 50 µg/mL | > 50 µg/mL | > 50 µg/mL | > 125 | > 50 µg/mL | > 50 µg/mL | > 50 µg/mL | > 50 µg/mL | > 125 | > 50 µg/mL | > 125 | > 50 µg/mL | > 50 µg/mL | > 50 µg/mL | > 50 µg/mL | > 50 µg/mL | > 50 µg/mL | > 50 µg/mL | > 50 µg/mL | EC50 [6]: > 50 µg/mL; EC50 [21]: > 50 µg/mL; EC50 [23]: > 50 µg/mL
3 | CC(N)C12CC3CC(CC(C3)C1)C2 (centres unmarked) [Rimantadine, reference compound] | > 200 µM |  |  | > 200 µM |  |  |  |  |  |  |  |  |  |  | 0.06 µM |  |  |  |  | 88.8 µM | 
4 | O=c1[nH]c(=O)n([C@H]2C[C@H](O)[C@@H](CO)O2)cc1/C=C/Br [Brivudin, reference compound] |  |  |  |  |  |  |  |  |  |  |  |  |  |  |  | 12.6 µM | 200 nM | 22.1 µM |  |  | CC50 [24]: > 250 µM
5 | Cc1cn([C@H]2C[C@H](F)[C@@H](CO)O2)c(=O)[nH]c1=O [Alovudine, reference compound] |  |  |  |  |  |  |  |  |  |  |  |  | 0.4 µM |  |  |  |  |  |  |  | 
6 | Nc1nc2c(ncn2COCCO)c(=O)[nH]1 [Acyclovir, reference compound] |  |  |  |  |  |  |  |  |  |  |  |  |  |  |  | > 250 µM | 1900 nM | 0.5 µM |  |  | CC50 [24]: > 250 µM
7 | Nc1nc(O)c2ncn(COC(CO)CO)c2n1 [Ganciclovir, reference compound] |  |  |  |  |  |  |  |  |  |  |  |  |  |  |  | > 100 µM | 400 nM | 0.09 µM |  |  | CC50 [24]: > 100 µM
8 | COc1c(C)c2c(c(O)c1C/C=C(\C)CCC(=O)O)C(=O)OC2 [Mycophenolic acid, reference compound] |  | > 100 µM | > 100 µM |  |  | 7.1 µM |  | > 100 µM |  |  | 3.6 µM |  |  |  |  |  |  |  | 200 nM |  | EC50 [23]: 2600 nM
9 | OCC1C(O)CC(n2cc(-c3ccccc3)nn2)C2CC12 [Compound 3c, (1R,2R,3R,5S,6S)-2-(Hydroxymethyl)-5-(4″-phenyl-1H-1″,2″,3″-triazol-1-yl)bicyclo[4.1.0]heptan-3-ol] | > 50 µg/mL | > 50 µg/mL | > 50 µg/mL | 20.4 µg/mL | > 96.2 | > 50 µg/mL | > 50 µg/mL | > 50 µg/mL | > 50 µg/mL | > 96.2 | > 50 µg/mL | 96.2 (≈ 337 µM) | > 50 µg/mL | > 50 µg/mL | > 50 µg/mL | > 50 µg/mL | > 50 µg/mL | > 50 µg/mL | > 50 µg/mL | > 50 µg/mL | EC50 [6]: > 50 µg/mL; EC50 [21]: > 50 µg/mL; EC50 [23]: > 50 µg/mL
10 | NC(=O)c1cn(C2CC(O)C(CO)C3CC32)nn1 (stereo not drawn) [Compound 3a, 1-[(1′S,2′S,4′R,5′R,6′R)-4′-Hydroxy-5′-(hydroxymethyl)bicyclo[4.1.0]hept-2′-yl]-1H-1,2,3-triazole-4-carboxamide] | > 50 µg/mL | > 50 µg/mL | > 50 µg/mL | > 50 µg/mL | > 125 | > 50 µg/mL | > 50 µg/mL | > 50 µg/mL | > 50 µg/mL | > 125 | > 50 µg/mL | > 125 | > 50 µg/mL | > 50 µg/mL | > 50 µg/mL | > 50 µg/mL | > 50 µg/mL | > 50 µg/mL | > 50 µg/mL | > 50 µg/mL | EC50 [6]: > 50 µg/mL; EC50 [21]: > 50 µg/mL; EC50 [23]: > 50 µg/mL
11 | NC(=O)c1ncn([C@@H]2O[C@H](CO)[C@@H](O)[C@H]2O)n1 [Ribavirin, reference compound] | 9.3 µM |  |  | > 100 µM |  |  | 149 µM |  | 117 µM |  |  |  |  | > 250 µM | 6.4 µM |  |  |  |  | 7.4 µM | EC50 [21]: 6.7 µM
12 | Cc1cn([C@H]2C[C@H](N=[N+]=[N-])[C@@H](CO)O2)c(=O)[nH]c1=O [Zidovudine, reference compound] |  |  |  |  | 0.002 (≈ 0.00748 µM) |  |  |  |  | 0.002 (≈ 0.00748 µM) |  | > 2 |  |  |  |  |  |  |  |  | 
13 | O=c1[nH]cnc2c1ncn2[C@H]1CC[C@@H](CO)O1 [Didanosine, reference compound] |  |  |  |  | 19.4 (≈ 82.1 µM) |  |  |  |  | 17.9 (≈ 76 µM) |  | > 50 |  |  |  |  |  |  |  |  | 
14 | CC(=O)N[C@H]1[C@H]([C@H](O)[C@H](O)CO)OC(C(=O)O)=C[C@@H]1N=C(N)N [Zanamivir, reference compound] | 1.4 µM |  |  | > 100 µM |  |  |  |  |  |  |  |  |  |  | 4.9 µM |  |  |  |  | 0.9 µM | 
15 | Nc1ccn(C[C@@H](CO)OCP(=O)(O)O)c(=O)n1 [Cidofovir, reference compound] |  |  |  |  |  |  |  |  |  |  |  |  | 9.9 µM |  |  | 8.7 µM | 39300 nM | 7.5 µM |  |  | CC50 [24]: > 250 µM
16 | Cc1cn(C2CC=C(CO)C3CC32)c(=O)[nH]c1=O (stereo not drawn) [Compound 19, 1-[(1′S,2′S,6′R)-5′-(hydroxymethyl)-bicyclo[4.1.0]hept-4′-en-2′-yl]-5-methylpyrimidine-2,4(1H,3H)-dione] | > 50 µg/mL | > 50 µg/mL | > 50 µg/mL | 18.6 µg/mL | > 109 | > 50 µg/mL | > 50 µg/mL | > 50 µg/mL | > 50 µg/mL | > 109 | > 50 µg/mL | 109 (≈ 440 µM) | > 50 µg/mL | > 50 µg/mL | > 50 µg/mL | > 50 µg/mL | > 50 µg/mL | > 50 µg/mL | > 50 µg/mL | > 50 µg/mL | EC50 [6]: > 50 µg/mL; EC50 [21]: > 50 µg/mL; EC50 [23]: > 50 µg/mL
17 | Nc1ccn([C@H]2CC[C@@H](CO)O2)c(=O)n1 [Zalcitabine, reference compound] |  |  |  |  |  |  |  |  |  |  |  |  | 12 µM |  |  |  |  |  |  |  | 
18 | B1 |  |  |  |  |  |  |  |  |  |  |  |  |  |  |  |  |  |  |  |  | Antiviral EC50 Human Coronavirus (229E) ([6]; HEL cell cultures): 1.2 µg/mL
